Test results taken from patent US10610520B2, “Heterocyclic compound” (Takeda Pharmaceutical Company Limited, priority 2016, dated 2020).

Target: T1, His-hMAGL (recombinant polyhistidine tagged human MAGL protein) (Homo sapiens, UniProt Q99685)
T1 construct: made in house; host or cells: E. coli BL21(DE3)
T1 sequence (Q99685 1-303): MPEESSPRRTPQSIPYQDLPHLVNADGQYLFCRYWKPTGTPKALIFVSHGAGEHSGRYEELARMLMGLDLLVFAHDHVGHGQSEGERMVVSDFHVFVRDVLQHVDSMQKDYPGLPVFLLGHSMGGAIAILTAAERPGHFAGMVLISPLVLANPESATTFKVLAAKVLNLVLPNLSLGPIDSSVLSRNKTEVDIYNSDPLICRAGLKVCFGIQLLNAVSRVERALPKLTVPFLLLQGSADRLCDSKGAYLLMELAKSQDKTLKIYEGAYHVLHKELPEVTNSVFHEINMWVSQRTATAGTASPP
Experiment: Measurement of MAGL inhibitory activity (arachidonic acid production from 2-arachidonylglycerol, RapidFire-mass spectrometry)
Assay type: biochemical
Settings: MAGL inhibitory rate, test compound 10 μM, 60 min preincubation, 2-arachidonylglycerol substrate
Procedure: The His-hMAGL obtained above was diluted with enzyme reaction buffer (10 mM Tris-HCl, pH 7.5, 1 mM EDTA, 0.025 (w/v) % Triton X-100, 0.01% Bovine serum albumin) to a concentration of 7.5 ng/mL. […] Thereafter, to each well was added 5 μL of 150 μM 2-arachidonylglycerol (Tocris Bioscience), and the mixture was incubated at room temperature for 10 min. Then, 10 μL of 2% formic acid (Wako Pure Chemical Industries, Ltd.) was added to stop the reaction. Furthermore, acetonitrile (50 μL) containing 3 μM arachidonic acid-d8 (Cayman Chemical Company) was added and the mixture was stirred.
The amount of arachidonic acid in the obtained enzyme reaction mixture was calculated by measuring by RapidFire-mass spectrometry and correcting by the amount of arachidonic acid-d8. High Throughput online solid phase extraction was performed using RapidFire 300™ system (Agilent Technologies, Inc.). Samples were loaded on SPE C4 cartridge (Agilent Technologies, Inc.) and desalted with 0.2 (v/v) % acetic acid (Wako Pure Chemical Industries, Ltd.) in ultrapure water/acetonitrile (70/30, v/v) at a flow rate of 1.5 mL/min, eluted at a flow rate of 0.5 mL/min with 0.2 (v/v) % acetic acid dissolved in acetonitrile/ultrapure water (90/10, v/v), and injected into the mass spectrometry part. The injection needle was washed with ultrapure water (500 millisecond) and acetonitrile (500 millisecond) to minimize carry-over. […] The RapidFire300 system was controlled by RapidFire UI software version 3.6 (Agilent Technologies, Inc.).
The mass spectrometry of the resultant product was performed using API4000™ triple quadrupole mass spectrometer (AB SCIEX) equipped with an electrospray ion sauce (TurboIon Spray™) in a negative selected reaction monitoring (SRM) mode. The conditions of SRM are shown below. The parameters of the instrument were optimized as follows: capillary temperature 600° C., ion spray voltage −4.5 kV, collision gas 8, curtain gas 15 psi, ion source gas 1 60 psi, ion source gas 2 60 psi. The mass spectrometer was controlled by Analyst™ software version 1.5.1 (AB SCIEX). The peak area integration was analyzed using RapidFire integrator software version 3.6 (Agilent Technologies, Inc.).
MAGL inhibitory rate (%) was calculated according to the following calculation formula. (1-(arachidonic acid production amount of test compound addition group−arachidonic acid production amount of enzyme-free group)÷(arachidonic acid production amount of test compound-free group−arachidonic acid production amount of enzyme-free group))×100

SMILES: O=C1CCC2(CN(C(=O)c3ccc(-c4ccccc4)cc3F)C2)N1 [Example 31, 2-((3-fluorobiphenyl-4-yl)carbonyl)-2,5-diazaspiro[3.4]octan-6-one]
- inhibition at 10 µM: 84%

SMILES: O=C1CCC2(CN(C(=O)c3sc4cc(F)ccc4c3Cl)C2)N1 [Example 140, 2-((3-chloro-6-fluoro-1-benzothiophen-2-yl)carbonyl)-2,5-diazaspiro[3.4]octan-6-one]
- inhibition at 10 µM: 99%

SMILES: O=C1CCC2(CN(C(=O)c3sc4cc(OC(F)F)ccc4c3Cl)C2)N1 [Example 260, 2-((3-chloro-6-(difluoromethoxy)-1-benzothiophen-2-yl)carbonyl)-2,5-diazaspiro[3.4]octan-6-one]
- inhibition at 10 µM: 100%

SMILES: CC(C)c1ccccc1-c1ccc2c(Cl)c(C(=O)N3CC4(CCC(=O)N4)C3)sc2c1 [Example 189, 2-((3-chloro-6-(2-isopropylphenyl)-1-benzothiophen-2-yl)carbonyl)-2,5-diazaspiro[3.4]octan-6-one]
- inhibition at 10 µM: 100%

SMILES: O=C1CCC2(CN(C(=O)c3sc(-c4cccc(C(F)(F)F)c4)cc3Cl)C2)N1 [Example 177, 2-((3-chloro-5-(3-(trifluoromethyl)phenyl)-2-thienyl)carbonyl)-2,5-diazaspiro[3.4]octan-6-one]
- inhibition at 10 µM: 98%

SMILES: O=C1CCC2(CN(C(=O)c3sc4cc(-c5ccccc5OC(F)(F)F)ccc4c3Cl)C2)N1 [Example 199, 2-((3-chloro-6-(2-(trifluoromethoxy)phenyl)-1-benzothiophen-2-yl)carbonyl)-2,5-diazaspiro[3.4]octan-6-one]
- inhibition at 10 µM: 100%

SMILES: O=C1CCC2(CN(C(=O)N3CCC(COc4ccc(C(F)(F)F)cc4Cl)CC3)C2)N1 [Example 3, 2-((4-((2-chloro-4-(trifluoromethyl)phenoxy)methyl)piperidin-1-yl)carbonyl)-2,5-diazaspiro[3.4]octan-6-one]
- inhibition at 10 µM: 102%

SMILES: O=C1NC2(CO1)CN(C(=O)c1sc3cc(-c4ccccc4F)ccc3c1-c1ccccc1F)C2 [Example 346, 2-((3,6-bis(2-fluorophenyl)-1-benzothiophen-2-yl)carbonyl)-7-oxa-2,5-diazaspiro[3.4]octan-6-one]
- inhibition at 10 µM: 100%

SMILES: O=C1NC2(CCN(C(=O)c3sc4cc(C(F)(F)F)c(F)cc4c3Cl)C2)CO1 (centres unmarked) [Example 343, 7-((3-chloro-5-fluoro-6-(trifluoromethyl)-1-benzothiophen-2-yl)carbonyl)-3-oxa-1,7-diazaspiro[4.4]nonan-2-one]
- inhibition at 10 µM: 100%

SMILES: O=C1CCC2(CN(C(=O)c3ccc(-c4ccccc4)cc3Cl)C2)N1 [Example 117, 2-((3-chlorobiphenyl-4-yl)carbonyl)-2,5-diazaspiro[3.4]octan-6-one]
- inhibition at 10 µM: 81%

SMILES: O=C1CCC2(CN(C(=O)c3ccc(-c4cc(C5CC5)ccc4F)cc3)C2)N1 [Example 53, 2-((5′-cyclopropyl-2′-fluorobiphenyl-4-yl)carbonyl)-2,5-diazaspiro[3.4]octan-6-one]
- inhibition at 10 µM: 99%

SMILES: O=C1CCC2(CN(C(=O)c3ccc(-c4cccc5c4OCC5)cc3)C2)N1 [Example 94, 2-(4-(2,3-dihydro-1-benzofuran-7-yl)benzoyl)-2,5-diazaspiro[3.4]octan-6-one]
- inhibition at 10 µM: 93%

SMILES: O=C1CCC2(CN(C(=O)c3ccc(-c4ccc(OC(F)(F)F)cc4)cc3)C2)N1 [Example 58, 2-((4′-(trifluoromethoxy)biphenyl-4-yl)carbonyl)-2,5-diazaspiro[3.4]octan-6-one]
- inhibition at 10 µM: 96%

SMILES: O=C1CCC2(CN(C(=O)c3sc4cc(Br)ccc4c3Cl)C2)N1 [Example 35, 2-((6-bromo-3-chloro-1-benzothiophen-2-yl)carbonyl)-2,5-diazaspiro[3.4]octan-6-one]
- inhibition at 10 µM: 99%

SMILES: O=C1CCC2(CN(C(=O)c3sc4cc(C5=CCC(F)(F)CC5)ccc4c3Cl)C2)N1 [Example 179, 2-((3-chloro-6-(4,4-difluorocyclohex-1-en-1-yl)-1-benzothiophen-2-yl)carbonyl)-2,5-diazaspiro[3.4]octan-6-one]
- inhibition at 10 µM: 100%

SMILES: Cc1cc(OC(F)(F)F)cc2sc(C(=O)N3CCC4(COC(=O)N4)C3)c(Cl)c12 (centres unmarked) [Example 331, 7-((3-chloro-4-methyl-6-(trifluoromethoxy)-1-benzothiophen-2-yl)carbonyl)-3-oxa-1,7-diazaspiro[4.4]nonan-2-one]
- inhibition at 10 µM: 101%

SMILES: O=C1NC2(CO1)CN(C(=O)c1sc3cc(F)cc(OCC4CC4)c3c1Cl)C2 [Example 363, 2-((3-chloro-4-(cyclopropylmethoxy)-6-fluoro-1-benzothiophen-2-yl)carbonyl)-7-oxa-2,5-diazaspiro[3.4]octan-6-one]
- inhibition at 10 µM: 99%

SMILES: O=C1CCC2(CN(C(=O)c3sc4cc(-c5cc(Cl)ccc5F)ccc4c3Cl)C2)N1 [Example 222, 2-((3-chloro-6-(5-chloro-2-fluorophenyl)-1-benzothiophen-2-yl)carbonyl)-2,5-diazaspiro[3.4]octan-6-one]
- inhibition at 10 µM: 99%

SMILES: O=C1CCC2(CN(C(=O)c3ccc(-c4c(F)cc(F)cc4F)cc3)C2)N1 [Example 77, 2-((2′,4′,6′-trifluorobiphenyl-4-yl)carbonyl)-2,5-diazaspiro[3.4]octan-6-one]
- inhibition at 10 µM: 88%

SMILES: O=C1CCC2(CN(C(=O)c3sc4cc(-c5ccccc5F)ccc4c3Cl)C2)N1 [Example 38, 2-((3-chloro-6-(2-fluorophenyl)-1-benzothiophen-2-yl)carbonyl)-2,5-diazaspiro[3.4]octan-6-one]
- inhibition at 10 µM: 103%

SMILES: O=C1CCC2(CN(C(=O)c3sc4ccccc4c3Cl)C2)N1 [Example 134, 2-((3-chloro-1-benzothiophen-2-yl)carbonyl)-2,5-diazaspiro[3.4]octan-6-one]
- inhibition at 10 µM: 98%

SMILES: Cc1ccc(-c2ccc3c(Cl)c(C(=O)N4CC5(CCC(=O)N5)C4)sc3c2)c(F)c1 [Example 207, 2-((3-chloro-6-(2-fluoro-4-methylphenyl)-1-benzothiophen-2-yl)carbonyl)-2,5-diazaspiro[3.4]octan-6-one]
- inhibition at 10 µM: 99%

SMILES: Cc1c(C(=O)N2CC3(COC(=O)N3)C2)sc2c(F)c(OC(F)(F)F)ccc12 [Example 347, 2-((7-fluoro-3-methyl-6-(trifluoromethoxy)-1-benzothiophen-2-yl)carbonyl)-7-oxa-2,5-diazaspiro[3.4]octan-6-one]
- inhibition at 10 µM: 100%

SMILES: Cc1sccc1-c1ccc2c(Cl)c(C(=O)N3CC4(CCC(=O)N4)C3)sc2c1 [Example 234, 2-((3-chloro-6-(2-methyl-3-thienyl)-1-benzothiophen-2-yl)carbonyl)-2,5-diazaspiro[3.4]octan-6-one]
- inhibition at 10 µM: 101%

SMILES: O=C1CCC2(CN(C(=O)c3ccc(-c4ccc(OC(F)(F)F)cc4F)cc3)C2)N1 [Example 59, 2-((2′-fluoro-4′-(trifluoromethoxy)biphenyl-4-yl)carbonyl)-2,5-diazaspiro[3.4]octan-6-one]
- inhibition at 10 µM: 97%

SMILES: Cc1c(C(=O)N2CC3(CCC(=O)N3)C2)sc2ccc([N+](=O)[O-])cc12 [Example 151, 2-((3-methyl-5-nitro-1-benzothiophen-2-yl)carbonyl)-2,5-diazaspiro[3.4]octan-6-one]
- inhibition at 10 µM: 93%

SMILES: O=C1NC2(CCN(C(=O)c3sc4cc(F)cc(Cl)c4c3Cl)C2)CO1 (centres unmarked) [Example 332, 7-((3,4-dichloro-6-fluoro-1-benzothiophen-2-yl)carbonyl)-3-oxa-1,7-diazaspiro[4.4]nonan-2-one]
- inhibition at 10 µM: 100%

SMILES: COc1ccc(-c2ccc3c(Cl)c(C(=O)N4CC5(CCC(=O)N5)C4)sc3c2)cc1 [Example 193, 2-((3-chloro-6-(4-methoxyphenyl)-1-benzothiophen-2-yl)carbonyl)-2,5-diazaspiro[3.4]octan-6-one]
- inhibition at 10 µM: 100%

SMILES: O=C1COCC2(CCN(C(=O)N3CCC(COc4ccc(F)cc4Cl)CC3)C2)N1 (centres unmarked) [Example 276, 2-((4-((2-chloro-4-fluorophenoxy)methyl)piperidin-1-yl)carbonyl)-9-oxa-2,6-diazaspiro[4.5]decan-7-one]
- inhibition at 10 µM: 99%
